Target: T1, 1-deoxy-D-xylulose 5-phosphate synthase (DXPS) (Escherichia coli, UniProt P77488)
T1 sequence (P77488 2-620): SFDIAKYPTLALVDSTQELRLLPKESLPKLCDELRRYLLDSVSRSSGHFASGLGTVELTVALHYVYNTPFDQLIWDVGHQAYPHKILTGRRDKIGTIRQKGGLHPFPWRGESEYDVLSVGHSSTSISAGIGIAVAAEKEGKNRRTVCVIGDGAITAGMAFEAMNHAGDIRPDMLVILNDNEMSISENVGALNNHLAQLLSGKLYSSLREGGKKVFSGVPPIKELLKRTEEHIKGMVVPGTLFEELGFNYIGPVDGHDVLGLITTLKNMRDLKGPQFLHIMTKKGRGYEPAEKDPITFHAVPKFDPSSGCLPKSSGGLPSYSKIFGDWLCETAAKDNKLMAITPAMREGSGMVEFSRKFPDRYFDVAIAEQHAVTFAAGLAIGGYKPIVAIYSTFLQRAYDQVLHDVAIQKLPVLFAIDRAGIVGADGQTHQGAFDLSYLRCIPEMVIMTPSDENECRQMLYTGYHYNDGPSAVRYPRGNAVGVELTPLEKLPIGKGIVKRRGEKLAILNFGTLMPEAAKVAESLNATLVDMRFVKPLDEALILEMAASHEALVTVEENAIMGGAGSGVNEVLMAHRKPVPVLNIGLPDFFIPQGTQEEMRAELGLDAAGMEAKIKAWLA
Assay: CD titration of the ThDP-bound pre-decarboxylation intermediate, anaerobic
Format: binding

Question: For CCC(=O)C(=O)O [compound 2, ketobutyrate], which Kd is on record?
Answer: 16 ± 9 µM

Source: article PMC8015787 (Biochemistry, 2021)
